Test results as given in PubChem BioAssay (NCI).
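Cultured in 96-well plates, cells were exposed to test compound for 48 hours across five concentrations. GI50 is the concentration that inhibits growth by half. At the TGI there is no net growth.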

Columns and labels:
Assay in all cases: DTP human tumour cell line panel, 48 h
786-0 renal = test system: 786-0 renal
A498 renal = test system: A498 renal
A549 NSCLC = test system: A549 NSCLC
ACHN renal = test system: ACHN renal
BT-549 breast = test system: BT-549 breast
CAKI-1 renal = test system: CAKI-1 renal
CCRF-CEM leukemia = test system: CCRF-CEM leukemia
COLO 205 colon = test system: COLO 205 colon
DU-145 prostate = test system: DU-145 prostate
EKVX NSCLC = test system: EKVX NSCLC
HCC-2998 colon = test system: HCC-2998 colon
HCT-116 colon = test system: HCT-116 colon
HCT-15 colon = test system: HCT-15 colon
HL-60(TB) leukemia = test system: HL-60(TB) leukemia
HOP-62 NSCLC = test system: HOP-62 NSCLC
HOP-92 NSCLC = test system: HOP-92 NSCLC
HS 578T breast = test system: HS 578T breast
HT29 colon = test system: HT29 colon
IGROV1 ovarian = test system: IGROV1 ovarian
K-562 leukemia = test system: K-562 leukemia
KM12 colon = test system: KM12 colon
M14 melanoma = test system: M14 melanoma
MALME-3M melanoma = test system: MALME-3M melanoma
MCF7 breast = test system: MCF7 breast
MDA-MB-231 breast = test system: MDA-MB-231 breast
MDA-MB-435 = test system: MDA-MB-435
MOLT-4 leukemia = test system: MOLT-4 leukemia
NCI-H226 lung = test system: NCI-H226 lung
NCI-H23 lung = test system: NCI-H23 lung
NCI-H460 lung = test system: NCI-H460 lung
NCI-H522 lung = test system: NCI-H522 lung
NCI/ADR-RES ovarian = test system: NCI/ADR-RES ovarian
OVCAR-4 ovarian = test system: OVCAR-4 ovarian
OVCAR-5 ovarian = test system: OVCAR-5 ovarian
OVCAR-8 ovarian = test system: OVCAR-8 ovarian
PC-3 prostate = test system: PC-3 prostate
RPMI-8226 leukemia = test system: RPMI-8226 leukemia
RXF 393 renal = test system: RXF 393 renal
SF-268 CNS = test system: SF-268 CNS
SF-295 CNS = test system: SF-295 CNS
SF-539 CNS = test system: SF-539 CNS
SK-MEL-2 melanoma = test system: SK-MEL-2 melanoma
SK-MEL-28 melanoma = test system: SK-MEL-28 melanoma
SK-OV-3 ovarian = test system: SK-OV-3 ovarian
SN12C renal = test system: SN12C renal
SNB-19 CNS = test system: SNB-19 CNS
SNB-75 CNS = test system: SNB-75 CNS
SR leukemia = test system: SR leukemia
SW-620 colon = test system: SW-620 colon
T-47D breast = test system: T-47D breast
TK-10 renal = test system: TK-10 renal
U251 CNS = test system: U251 CNS
UACC-257 melanoma = test system: UACC-257 melanoma
UACC-62 melanoma = test system: UACC-62 melanoma
UO-31 renal = test system: UO-31 renal

Compound: O=c1oc2ccc(-c3ccc(F)cc3F)cc2c(=O)n1-c1cccc(C(F)(F)F)c1
- GI50 (786-0 renal): 1770 nM
- TGI (786-0 renal): 9550 nM
- GI50 (A498 renal): 902 nM
- TGI (A498 renal): 2380 nM
- GI50 (A549 NSCLC): 1680 nM
- TGI (A549 NSCLC): > 50000 nM
- GI50 (ACHN renal): 1390 nM
- TGI (ACHN renal): 4260 nM
- GI50 (BT-549 breast): 1660 nM
- TGI (BT-549 breast): 6770 nM
- GI50 (CAKI-1 renal): 1020 nM
- TGI (CAKI-1 renal): 2990 nM
- GI50 (CCRF-CEM leukemia): 1710 nM
- TGI (CCRF-CEM leukemia): 24500 nM
- GI50 (COLO 205 colon): 5910 nM
- TGI (COLO 205 colon): 14400 nM
- GI50 (DU-145 prostate): 2000 nM
- TGI (DU-145 prostate): > 50000 nM
- GI50 (EKVX NSCLC): 1180 nM
- TGI (EKVX NSCLC): 4640 nM
- GI50 (HCC-2998 colon): 1600 nM
- TGI (HCC-2998 colon): 6240 nM
- GI50 (HCT-116 colon): 1550 nM
- TGI (HCT-116 colon): 5850 nM
- GI50 (HCT-15 colon): 1530 nM
- TGI (HCT-15 colon): 5600 nM
- GI50 (HL-60(TB) leukemia): 1100 nM
- TGI (HL-60(TB) leukemia): 2890 nM
- GI50 (HOP-62 NSCLC): 1480 nM
- TGI (HOP-62 NSCLC): 6330 nM
- GI50 (HOP-92 NSCLC): 952 nM
- TGI (HOP-92 NSCLC): 2780 nM
- GI50 (HS 578T breast): 1310 nM
- TGI (HS 578T breast): 4640 nM
- GI50 (HT29 colon): 6240 nM
- TGI (HT29 colon): > 50000 nM
- GI50 (IGROV1 ovarian): 1490 nM
- TGI (IGROV1 ovarian): 8810 nM
- GI50 (K-562 leukemia): 1630 nM
- TGI (K-562 leukemia): > 50000 nM
- GI50 (KM12 colon): 1610 nM
- TGI (KM12 colon): 5460 nM
- GI50 (M14 melanoma): 1710 nM
- TGI (M14 melanoma): 8410 nM
- GI50 (MALME-3M melanoma): 1160 nM
- TGI (MALME-3M melanoma): 3260 nM
- GI50 (MCF7 breast): 1290 nM
- TGI (MCF7 breast): 4790 nM
- GI50 (MDA-MB-231 breast): 1210 nM
- TGI (MDA-MB-231 breast): 2970 nM
- GI50 (MDA-MB-435): 1580 nM
- TGI (MDA-MB-435): 5340 nM
- GI50 (MOLT-4 leukemia): 1550 nM
- TGI (MOLT-4 leukemia): 6890 nM
- GI50 (NCI-H226 lung): 1510 nM
- TGI (NCI-H226 lung): 5580 nM
- GI50 (NCI-H23 lung): 1130 nM
- TGI (NCI-H23 lung): 3730 nM
- GI50 (NCI-H460 lung): 1530 nM
- TGI (NCI-H460 lung): 5770 nM
- GI50 (NCI-H522 lung): 1420 nM
- TGI (NCI-H522 lung): 6020 nM
- GI50 (NCI/ADR-RES ovarian): 1270 nM
- TGI (NCI/ADR-RES ovarian): 3960 nM
- GI50 (OVCAR-4 ovarian): 1610 nM
- TGI (OVCAR-4 ovarian): 40100 nM
- GI50 (OVCAR-5 ovarian): 1550 nM
- TGI (OVCAR-5 ovarian): > 50000 nM
- GI50 (OVCAR-8 ovarian): 1720 nM
- TGI (OVCAR-8 ovarian): > 50000 nM
- GI50 (PC-3 prostate): 1640 nM
- TGI (PC-3 prostate): 7540 nM
- GI50 (RPMI-8226 leukemia): 1030 nM
- TGI (RPMI-8226 leukemia): 3130 nM
- GI50 (RXF 393 renal): 1280 nM
- TGI (RXF 393 renal): 3930 nM
- GI50 (SF-268 CNS): 1550 nM
- TGI (SF-268 CNS): 12000 nM
- GI50 (SF-295 CNS): 1230 nM
- TGI (SF-295 CNS): 3340 nM
- GI50 (SF-539 CNS): 1590 nM
- TGI (SF-539 CNS): 6450 nM
- GI50 (SK-MEL-2 melanoma): 1210 nM
- TGI (SK-MEL-2 melanoma): 3370 nM
- GI50 (SK-MEL-28 melanoma): 1730 nM
- TGI (SK-MEL-28 melanoma): 7480 nM
- GI50 (SK-OV-3 ovarian): 1310 nM
- TGI (SK-OV-3 ovarian): 3970 nM
- GI50 (SN12C renal): 1350 nM
- TGI (SN12C renal): 4150 nM
- GI50 (SNB-19 CNS): 1790 nM
- TGI (SNB-19 CNS): > 50000 nM
- GI50 (SNB-75 CNS): 906 nM
- TGI (SNB-75 CNS): 2590 nM
- GI50 (SR leukemia): 1640 nM
- TGI (SR leukemia): > 50000 nM
- GI50 (SW-620 colon): 1610 nM
- TGI (SW-620 colon): 6470 nM
- GI50 (T-47D breast): 1300 nM
- TGI (T-47D breast): 4130 nM
- GI50 (TK-10 renal): 2250 nM
- TGI (TK-10 renal): 12000 nM
- GI50 (U251 CNS): 1700 nM
- TGI (U251 CNS): > 50000 nM
- GI50 (UACC-257 melanoma): 1210 nM
- TGI (UACC-257 melanoma): 3870 nM
- GI50 (UACC-62 melanoma): 1200 nM
- TGI (UACC-62 melanoma): 3650 nM
- GI50 (UO-31 renal): 1130 nM
- TGI (UO-31 renal): 4920 nM
